These compounds were tested against PD-L1 His protein / PD-1 Fc protein (Homo sapiens, UniProt Q9NZQ7) (assay: HTRF Assay (PD-1/PD-L1 interaction)). Details: PD-L1 His 6 nM, PD-1 Fc 6 nM.
PD-L1 His protein / PD-1 Fc protein, sequence (Q9NZQ7 19-238 limits assumed): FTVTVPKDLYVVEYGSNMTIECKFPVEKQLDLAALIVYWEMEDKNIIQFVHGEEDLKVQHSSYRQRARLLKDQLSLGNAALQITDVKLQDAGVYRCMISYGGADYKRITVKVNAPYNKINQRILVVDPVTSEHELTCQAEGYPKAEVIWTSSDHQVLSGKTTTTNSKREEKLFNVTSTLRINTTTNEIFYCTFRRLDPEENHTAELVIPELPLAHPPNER
Type: binding
Outline: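 Compounds tested from 20 μM down to 0.001 μM (3-fold) against 6 nM PD-L1 His and 6 nM PD-1 Fc, 15 min room temperature incubation. Detection after 1 h at room temperature with Tb cryptate anti-6HIS and XL665 anti-human IgG reagents (mixture at 0.35 nM and 6.7 nM), HTRF signal.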
With COc1nc(-c2cccc(-c3cccc(-c4ccn5c(=O)c(CNCCO)cnc5c4)c3Cl)c2Cl)cc(Cl)c1CNC[C@@H]1CCC(=O)N1 [Example 378, (S)-8-(2,2′-Dichloro-3′-(4-chloro-6-methoxy-5-((((5-oxopyrrolidin-2-yl)methyl)amino)methyl)pyridin-2-yl)-[1,1′-biphenyl]-3-yl)-3-(((2-hydroxyethyl)amino)methyl)-4H-pyrido[1,2-a]pyrimidin-4-one] the IC50 was 110 nM.
For COc1nc(-c2cccc(-c3cccc(-c4cnc5c(CNC[C@@H]6CCC(=O)N6)c(OC)nn5c4)c3Cl)c2Cl)ccc1CNC[C@@H]1CCC(=O)N1 [Example 379, (S)-5-((((6-(2,2′-Dichloro-3′-(2-methoxy-3-(((((S)-5-oxopyrrolidin-2-yl)methyl)amino)methyl)pyrazolo[1,5-a]pyrimidin-6-yl)-[1,1′-biphenyl]-3-yl)-2-methoxypyridin-3-yl)methyl)amino)methyl)pyrrolidin-2-one], the IC50 was 5.6 nM.
In the case of COc1nc(-c2cccc(-c3cccc(-c4ccn5c(CNC[C@@H]6CCC(=O)N6)cnc5c4)c3Cl)c2Cl)ccc1CNC[C@@H]1CCC(=O)N1 [Example 380], the IC50 is reported as 24 nM.
In the case of O=C1CC[C@@H](CNCc2cnc3cc(-c4cccc(-c5cccc(-c6cnc7c(CNC[C@@H]8CCC(=O)N8)cnn7c6)c5Cl)c4Cl)ccn3c2=O)N1 [Example 381, 8-(2,2′-dichloro-3′-(3-(((((S)-5-oxopyrrolidin-2-yl)methyl)amino)methyl)pyrazolo[1,5-a]pyrimidin-6-yl)-[1,1′-biphenyl]-3-yl)-3-(((((S)-5-oxopyrrolidin-2-yl)methyl)amino)methyl)-4H-pyrido[1,2-a]pyrimidin-4-one], the IC50 is reported as 5.9 nM.
COc1nc(-c2cccc(-c3cccc(-c4ccn5c(Cl)c(CNC[C@@H]6CCC(=O)N6)nc5c4)c3Cl)c2Cl)ccc1CNC[C@@H]1CCC(=O)N1 [Example 382, (5S)-5-[[[6-[2-chloro-3-[2-chloro-3-[3-chloro-2-[[[(2S)-5-oxopyrrolidin-2-yl]methylamino]methyl]imidazo[1,2-a]pyridin-7-yl]phenyl]phenyl]-2-methoxy-3-pyridyl]methylamino]methyl]pyrrolidin-2-one] was tested, and the IC50 was 110 nM.
Compound COc1nc(-c2cccc(-c3cccc(-c4ccn5c(Cl)c(CNCCO)nc5c4)c3Cl)c2Cl)ccc1CNCCO [Example 383, 2-[[6-[2-Chloro-3-[2-chloro-3-[3-chloro-2-[(2-hydroxyethylamino)methyl]imidazo[1,2-a]pyridin-7-yl]phenyl]phenyl]-2-methoxy-3-pyridyl]methylamino]etanol] has an IC50 of 40 nM.
For COC(=O)C(C)(C)CNCc1cnc2cc(-c3cccc(-c4cccc(-c5ccc(CNC[C@@H]6CCC(=O)N6)c(OC)n5)c4Cl)c3Cl)ccn2c1=O [Example 384, methyl (S)-3-(((8-(2,2′-dichloro-3′-(6-methoxy-5-((((5-oxopyrrolidin-2-yl)-methyl)-amino)-methyl)-pyridin-2-yl)-[1,1′-biphenyl]-3-yl)-4-oxo-4H-pyrido[1,2-a]pyrimidin-3-yl)-methyl)-amino)-2,2-dimethylpropanoate], the IC50 was 2.7 nM.
For COc1nc(-c2cccc(-c3cccc(-c4ccc5[nH]c(CNC[C@@H]6CCC(=O)N6)c(Cl)c5n4)c3Cl)c2Cl)ccc1CNC[C@@H]1CCC(=O)N1 [Example 385, (S)-5-((((3-Chloro-5-(2,2′-dichloro-3′-(6-methoxy-5-(((((S)-5-oxopyrrolidin-2-yl)methyl)-amino)methyl)-pyridin-2-yl)-[1,1′-biphenyl]-3-yl)-1H-pyrrolo[3,2-b]-pyridin-2-yl)methyl)-amino)methyl)-pyrrolidin-2-one], the IC50 was 13 nM.
Compound COc1nc(-c2cccc(-c3cccc(-c4ccc5c(Cl)c(CNC[C@@H]6CCC(=O)N6)[nH]c5n4)c3Cl)c2Cl)ccc1CNC[C@@H]1CCC(=O)N1 [Example 386, (S)-5-((((3-Chloro-6-(2,2′-dichloro-3′-(6-methoxy-5-(((((S)-5-oxopyrrolidin-2-yl)methyl)-amino)methyl)-pyridin-2-yl)-[1,1′-biphenyl]-3-yl)-1H-pyrrolo[2,3-b]-pyridin-2-yl)methyl)-amino)methyl)-pyrrolidin-2-one] has an IC50 of 28 nM.
COc1nc(-c2cccc(-c3cccc(N4Cc5cc(CNC[C@@H]6CCC(=O)N6)ccc5C4=O)c3Cl)c2Cl)ccc1CNC[C@@H]1CCC(=O)N1 [Example 387, 2-(2,2′-Dichloro-3′-(6-methoxy-5-(((((S)-5-oxopyrrolidin-2-yl)methyl)amino)methyl)pyridin-2-yl)-[1,1′-biphenyl]-3-yl)-5-(((((S)-5-oxopyrrolidin-2-yl)methyl)amino)methyl)isoindolin-1-one] gave an IC50 of 0.1 nM.
In the case of COc1nc(-c2cccc(-c3cccc(-c4ccc5c(CNC[C@@H]6CCC(=O)N6)cn(C)c5n4)c3Cl)c2Cl)ccc1CNC[C@@H]1CCC(=O)N1 [Example 388, (5S)-5-[[[6-[2-Chloro-3-[2-chloro-3-[1-methyl-3-[[[(2S)-5-oxopyrrolidin-2-yl]methylamino]methyl]pyrrolo[2,3-b]pyridin-6-yl]phenyl]phenyl]-2-methoxy-3-pyridyl]methylamino]methyl]pyrrolidin-2-one], the IC50 is reported as 610 nM.
COc1nc(-c2cccc(-c3cccc(-c4ccc5ncc(CNC[C@@H]6CCC(=O)N6)n5c4)c3Cl)c2Cl)ccc1CNC[C@@H]1CCC(=O)N1 [Example 389, (5S)-5-[[[6-[2-Chloro-3-[2-chloro-3-[3-[[[(2S)-5-oxopyrrolidin-2-yl]methylamino]methyl]imidazo[1,2-a]pyridin-6-yl]phenyl]phenyl]-2-methoxy-3-pyridyl]methylamino]methyl]pyrrolidin-2-one] was tested, and the IC50 was 40 nM.
In the case of COc1nc(-c2cccc(-c3cccc(-c4ccc5nn(CCCN6C(=O)c7ccccc7C6=O)c(=O)n5c4)c3Cl)c2Cl)ccc1CNC[C@@H]1CCC(=O)N1 [Example 391, (S)-2-(3-(6-(2,2′-Dichloro-3′-(6-methoxy-5-((((5-oxopyrrolidin-2-yl)methyl)amino)methyl)pyridin-2-yl)-[1,1′-biphenyl]-3-yl)-3-oxo-[1,2,4]triazolo[4,3-a]pyridin-2(3H)-yl)propyl)isoindoline-1,3-dione], the IC50 is reported as 65 nM.
COc1nc(-c2cccc(-c3cccc(-c4ccc5nn(CCCN(CC(C)C)CC(C)C)c(=O)n5c4)c3Cl)c2Cl)ccc1CNC[C@@H]1CCC(=O)N1 [Example 392, (S)-6-(2,2′-Dichloro-3′-(6-methoxy-5-((((5-oxopyrrolidin-2-yl)methyl)-amino)-methyl)pyridin-2-yl)-[1,1′-biphenyl]-3-yl)-2-(3-(diisobutylamino)propyl)-[1,2,4]triazolo[4,3-a]pyridin-3(2H)-one] showed an IC50 of 6.7 nM.
Work on COc1nc(-c2cccc(-c3cccc(-c4ccn5c(=O)c(CN[C@H]6C[C@](C)(O)C6)cnc5c4)c3Cl)c2Cl)cc(Cl)c1CNC[C@@H]1CCC(=O)N1 [Example 393, 8-(2,2′-Dichloro-3′-(4-chloro-6-methoxy-5-(((((S)-5-oxopyrrolidin-2-yl)methyl)amino)methyl)pyridin-2-yl)-[1,1′-biphenyl]-3-yl)-3-((((1r,3r)-3-hydroxy-3-methylcyclobutyl)amino)methyl)-4H-pyrido[1,2-a]pyrimidin-4-one] yielded an IC50 of 62 nM.
In the case of COc1cc(-c2cccc(-c3cccc(-c4cc5c(c(OC)c4)CN(C[C@@H]4CCC(=O)N4)CC5)c3Cl)c2Cl)cc2c1CN(C[C@@H]1CCC(=O)N1)CC2 [Example 394, (5S,5'S)-5,5′-((6,6′-(2,2′-Dichloro-[1,1′-biphenyl]-3,3′-diyl)bis(8-methoxy-3,4-dihydroisoquinoline-6,2(1H)-diyl))bis(methylene))bis(pyrrolidin-2-one)], the IC50 is reported as 71 nM.
Work on COc1nc(-c2cccc(-c3cccc(-c4cc5c(=O)n(C)c(CN(C)CCO)nn5c4)c3Cl)c2Cl)ccc1CNC[C@@H]1CCC(=O)N1 [Example 395, (S)-6-(2,2′-Dichloro-3′-(6-methoxy-5-((((5-oxopyrrolidin-2-yl)methyl)amino)methyl)pyridin-2-yl)-[1,1′-biphenyl]-3-yl)-2-(((2-hydroxyethyl)(methyl)amino)methyl)-3-methylpyrrolo[2,1-f][1,2,4]triazin-4(3H)-one] yielded an IC50 of 6.7 nM.
For COc1nc(-c2cccc(-c3cccc(-c4ccn5c(=O)c6c(nc5c4)OCCNC6)c3Cl)c2Cl)ccc1CNC[C@@H]1CCC(=O)N1 [Example 396, (S)-10-(2,2′-Dichloro-3′-(6-methoxy-5-((((5-oxopyrrolidin-2-yl)methyl)amino)methyl)pyridin-2-yl)-[1,1′-biphenyl]-3-yl)-4,5-dihydro-2H-pyrido[1′,2′:1,2]pyrimido[5,4-f][1,4]oxazepin-6(3H)-one], the IC50 was 15 nM.
Work on COc1nc(-c2cccc(-c3cccc(-c4cc(OC)c5c(CNC[C@@H]6CCC(=O)N6)cnn5c4)c3Cl)c2Cl)ccc1CNC[C@@H]1CCC(=O)N1 [Example 397] yielded an IC50 of 290 nM.
COc1nc(-c2cccc(-c3cccc(-c4ccc5c(OC)c(CNC[C@@H]6CCC(=O)N6)cc(Cl)c5n4)c3Cl)c2Cl)cc(F)c1CNC[C@@H]1CCC(=O)N1 [Example 398, (S)-5-((((8-Chloro-2-(2,2′-dichloro-3′-(4-fluoro-6-methoxy-5-(((((S)-5-oxopyrrolidin-2-yl)methyl)amino)methyl)pyridin-2-yl)-[1,1′-biphenyl]-3-yl)-5-methoxyquinolin-6-yl)methyl)amino)methyl)pyrrolidin-2-one] was tested, and the IC50 was 28 nM.
For CCc1nc2cc(-c3cccc(-c4cccc(-c5ccc(CNC[C@@H]6CCC(=O)N6)c(OC)n5)c4Cl)c3Cl)ccn2c(=O)c1CNC[C@@H]1CCC(=O)N1 [Example 399, 8-(2,2′-Dichloro-3′-(6-methoxy-5-(((((S)-5-oxopyrrolidin-2-yl)methyl)amino)methyl)pyridin-2-yl)-[1,1′-biphenyl]-3-yl)-2-ethyl-3-(((((S)-5-oxopyrrolidin-2-yl)methyl)amino)methyl)-4H-pyrido[1,2-a]pyrimidin-4-one], the IC50 was 110 nM.
